Experimental data published in patent publication US20240067931A1, “METHODS AND COMPOSITIONS FOR SMALL MOLECULE BASED PANCREATIC BETA CELL INDUCTION” (Trailhead Biosystems Inc., priority 2022, published 2024).
Ends that are not written are not given here.

How the values were obtained:
Format in all cases: cell-based, human
[1] = system: GCG, SST, PDX1, PAX4, MAFA and NKX2.2; experiment: HD-DoE stage 3 screening, heat map and dynamic profiling of endocrine and beta cell genes; details: heat maps FIG. 19 and FIG. 21
Text: FIG. 19 Heat map showing descending factor contributions for the induction of INS. The three HD-DoE experiments shown in Example 17 were used for modeling the maximal expression of several other genes, including GCG, SST, PDX1, PAX4, MAFA and NKX2.2, which are indicative of endocrine cell types with a focus on pancreatic beta cells as indicated at the top of the heat map. The relative factor contributions for the activation of these different genes were then used to generate a secondary heat map representative of the gene induction logic and then ranked according to the compound's ability to induce INS. Dark blue colors indicate a high inductive capacity, while dark red colors indicative of a highly repressive capacity for activation of the genes are shown.
FIG. 21 Heat map showing descending factor contributions for the induction of INS. The four HD-DoE experiments shown in Example 19 were used for modeling the maximal expression of several other genes. These genes were GCG, SST, PDX1, PAX4, MAFA and NKX2.2. These genes are all indicative of endocrine cell types with a focus on the beta cell as indicated at the top of the heatmap. The relative factor contribution for the activation of these different genes were then used to generate a secondary heat map representative of these genes induction logic and then ranked order according to the compounds ability to induce INS. Dark blue indicates high inductive capacity, while dark red is indicative of a highly repressive effect for the activation of the genes shown.
(§1) FIGS. 22-25. Dynamic profiling of endocrine sub-type regulation. One of the HD-DoE experiments shown in Example 19 was analyzed using MODDE software and dynamic profiling of the endocrine products GCG, SST and INS are shown.
To ascertain which factors could potentially favor the beta cell over other endocrine cell types, optimizers for markers of the other endocrine cell types and beta cell specific markers were compared. The relative factor contribution from the different optimizers were compared.
Optimizers for the main pancreatic endocrine hormones and beta cell-specific transcription factors were generated to compare their contribution factors for this series of HD-DoE. Compounds that could selectively favor the differentiation of the beta cell over that of the alpha and delta cells were identified in this manner.

INS = experiment: HD-DoE screening for optimal de novo beta cell induction (stage 3 cultures, 3 day perturbation), INS induction
Experimental: FIG. 18 HD-DoE screening for optimal de novo beta cell induction. Culture of the iPSC cell line CR01 were differentiated to a DFE state for 3 days. These cultures were then incubated in the presence of stage 2 media for an additional 3 days. These cultures were then incubated for an additional 5 days in the presence of GSI-XX and A8301 followed by a 3 day incubation in the presence of a perturbation matrix composed of the compounds indicated in the different panels. This was performed 3 separate times (once for each of the 3 panels). These HD-DoE experiments were then analyzed using MODDE software for maximal induction of insulin. The predicted results are shown.
FIG. 20 HD-DoE screening for optimal de novo beta cell induction. Cultures of the iPSC cell line CR01 were differentiated to a DFE state for 3 days. These cultures were then incubated in the presence of stage 2 media for an additional 3 days. These cultures were then incubated for an additional 5 days in the presence of GSI-XX and A8301 followed by a 3 day incubation in the presence of a perturbation matrix composed of the compounds indicated in the different panels. This was performed 4 separate times (once for each of the 4 panels). These HD-DoE experiments were then analyzed using MODDE software for the maximal induction of Insulin. The predicted results are shown.
as §1
To define factors contributing to the activation of INS, a series of HD-DoE perturbations were performed using factors chosen to target different aspects of beta cell biology.
To define factors contributing to the activation of INS, a series HD-DoE perturbations were performed using factors chosen to target different aspects of beta cell biology.

de novo beta cells = experiment: Immunohistochemical validation of de novo beta cells, day 16 culture (PDX1, C-peptide); details: added to stage 3 media, FIG. 26
Experimental: FIG. 26 Immunohistochemical validation of the generation of the de novo beta cells. Cultures of the iPSC cell line CR01 was differentiated to a DFE state for 3 days. These cultures were then incubated in the presence of stage 2 media for an additional 3 days. These cultures were then incubated for an additional 10 days in the presence of quercetin, GSI-XX and A8301. The cultures were then fixed using formalin and stained for antibodies that recognize the proteins PDX1 and CPEP.
C-peptide staining was performed to distinguish between de novo generation of beta cells and the possible absorption of insulin from the culture media.

FOXA2 [2] = experiment: Immunohistochemical staining of iPSC (CR01) cultures after three days in additive combinations; details: added to RA and LDN, FIG. 9
Text: FIG. 9 Achieving optimal FOXA2 expression. IPSC (CR01) cultures were exposed to media containing different combination of the additive retinoic acid, LDN193189, A8301 and/or PD0325 as indicated on the left side of the stainings. After three days, cultures were fixed and subjected to immunohistochemical staining for the protein antigens of FOXA2 and HNF1b.

FOXA2 [3] = experiment: HD-DoE perturbation matrix on iPSC line CR01, optimization of FOXA2 activation (MODDE modelling)
Text: (§2) FIG. 3 Optimization of FOXA2 from the iPSC-line CR01. A culture of the iPSC cell line Cr01 was exposed to an HD-DoE perturbation matrix composed of compounds regulating the BMP, retinoid, TGF-β and FGF pathways. Pathways previously shown to be involved in the differentiation of dorsal foregut endoderm. MODDE software was used to predict the optimal condition for maximizing FOXA2 activation. Predicted factor additives for this optimization and the relative expression under these conditions for all genes measured are shown.
(§3) To assay the efficacy of a potentially clinical grade iPSC line the NCRM1 cell line was chosen. An HD-DoE based optimization was used to validate the HNF1b and FOXA2 optimizers for this cell line. The HD-DOE method was applied with the intent to find conditions for induction of endoderm-expressed genes, directly from the pluripotent stem cell state. This example utilizes a method previously described by Bukys et al. (2020) Iscience 23:101346. The method employs computerized design geometries to simultaneously test multiple process inputs and offers mathematical modeling of a deep effector/response space. The method allows for finding combinatorial signaling inputs that control a complex process, such as dauring cell differentiation. It allows testing of multiple plausible critical process parameters, as such parameters impact output responses, such as gene expression. Because gene expression provides hallmark features of the phenotype of, for example, a human cell, the method can be applied to identify, and understand, which signaling pathways control cell fate.
(§4) To develop a cell culture recipe for each stage, the impact of agonists and antagonists of multiple signaling pathways (herein called effectors) on the expression of pre-selected genes was tested and modeled. The impact of each effector on gene expression level is defined by a parameter called factor contribution that is calculated for each effector during the modeling. These effectors are small molecules or proteins that are commonly used during stepwise differentiation of stem cells to specific fates. Choice of the effectors were based on current literature on differentiation of stem cells to endoderm progenitors.
(§5) In both optimizations, it was shown that BMP pathway inhibition was the most crucial component of the optimization with factor contribution factors of 31.26 and 31.11 for LDN193189 in both the optimization of HNF1b (FIG. 2) and FOXA2 (FIG. 3), respectively. While MEK pathway inhibition with PD0325901 was critical for both HNF1b and FOXA2 optimization (factor contributions of 15.01 and 29.01, respectively), FOXA2 activation was more dependent on MEK inhibition. The other two pathways that were determined to be crucial for controlling DFE activation were retinoid signaling and TGF-β pathway inhibition. These two pathways had differential effects on FOXA2 and HNF1b.

HNF1b = experiment: HD-DoE perturbation matrix on iPSC line CR01, optimization of HNF1b activation (MODDE modelling)
Text: as §2, with “FIG. 2” for “FIG. 3”, “of HNF1B” for “of FOXA2”, “foregut endoderm were utilized in this analysis.” for “foregut endoderm.”, “maximizing HNF1b” for “maximizing FOXA2”, “for the” for “for all”
as §3, §4, §5

PDX1 = experiment: HD-DoE perturbation matrix on DFE culture, modelling for maximal PDX1 induction
Text: FIG. 11 Modelling for maximal PDX1 induction. Cultures of the iPSC cell line Cr01 was differentiated to a DFE state and then subjected to an HD-DoE perturbation matrix composed of the compounds indicated in the figure. MODDE software was used to predict the optimal condition for maximizing PDX1 activation. Predicted factor additives for this optimization and the relative expression under these conditions for the genes measured are shown.
FIG. 12 Coefficient plots show main effectors for pancreatic progenitor generation from a DFE precursor. Coefficients for the HD-DoE design shown in Example 9 are shown for PDX1 and PTF1A. The co-expression of these two genes is indicative of a pancreatic field.
To determine the best way for inducing a pancreatic fate from a DFE progenitor, a subsequent HD-DoE analysis was performed. Exposing a DFE culture to a perturbation matrix composed of all previously identified effectors shown to have a positive effect on PDX1 activation was used to define optimal conditions for PDX1 induction.

[4] = system: iPSC derivatives (insulin secreting cells); experiment: GSIS assay of bioreactor produced iPSC derivatives with cAMP agonists; details: FIG. 39
Experimental: FIG. 39. Functionality of bioreactor produced insulin secreting cells occurs through cAMP agonism.
A glucose stimulated insulin secretion assay was performed to evaluate the functional maturity of the de novo beta cells generated. Assay samples had growth media removed and were washed once with PBS to remove any trace of media that may have been previously conditioned with secreted C-PEP. All samples were then incubated in the presence of basal media at 37 degrees Celsius for 15 minutes. Basal media consisted of RPMI containing 3 mM glucose. This media was then changed to either media supplemented with 17.5 mM glucose or 30 mM KCl and incubated for an additional 15 minutes.
Fully mature beta cells respond to incretins such as GLP1 through a cAMP mediated response. The iPSC derivatives are non-responsive to both GLP1 or a commonly used agonist of the GLP1 pathway EX4. It was shown that the receptor for these incretins (GLPR1) had very low expression in the iPSC-derivatives (FIG. 40). The rate of insulin secretion was also directly linked to the rate of mitochondrial respiration, as fully mature beta cells lack LDHA expression, making them only capable of metabolizing glucose through mitochondria respiration.

INS (beta cell marker) = experiment: HD-DoE on DFE culture, dynamic profiling of endocrine sub-type markers: INS; details: PDX1 optimizer, dynamic profiling FIG. 14
Text: FIG. 14 Dynamic profiling exploring endocrine cell sub-types. IPSC cultures were differentiated to DFE cultures and then subjected a HD-DoE matrix as outlined in Example 10. MODDE software was used to display the dynamic profiles of GCG, INS and SST, which provide a representable characterization of the different pancreatic endocrine subtypes corresponding to alpha, beta, and delta cells, respectively.

O=c1c(O)c(-c2ccc(O)c(O)c2)oc2cc(O)cc(O)c12 [quercetin]
effect on beta cell specific transcription factors / all genes optimized [1]: beneficial for all genes optimized | contribution factor, activation of INS (INS; Example 17, three HD-DoE panels, FIG. 18): 15.6 | endocrine conversion, de novo beta cell generation (immunohistochemical analysis) (de novo beta cells): increased overall endocrine conversion

O=C(NOC[C@H](O)CO)c1ccc(F)c(F)c1Nc1ccc(I)cc1F [PD0325901]
FOXA2 activation (immunohistochemical analysis) (FOXA2 [2]): increased FOXA2 activation over RA and LDN alone | factor contribution, optimization of FOXA2 (FOXA2 [3]; iPSC line CR01, HD-DoE, FIG. 3): 29.01 | factor contribution, optimization of HNF1b (HNF1b; iPSC line CR01, HD-DoE, FIG. 2): 15.01 | activation of the pancreatic field (PTF1A and PDX1), coefficient plots (PDX1; from DFE, FIG. 12): most critical to control

c1ccc2c(-c3cnn4cc(-c5ccc(N6CCNCC6)cc5)cnc34)ccnc2c1 [LDN193189]
effect on FOXA2 expression (FOXA2 [3]; dynamic profiling, FIG. 5): crucial | factor contribution, optimization of FOXA2 (FOXA2 [3]; iPSC line CR01, HD-DoE, FIG. 3): 31.11 | effect on HNF1b expression (HNF1b; dynamic profiling, FIG. 5): crucial | factor contribution, optimization of HNF1b (HNF1b; iPSC line CR01, HD-DoE, FIG. 2): 31.26

Cc1cccc(-c2nn(C(=S)Nc3ccccc3)cc2-c2ccnc3ccccc23)n1 [A8301]
FOXA2 activation (immunohistochemical analysis) (FOXA2 [2]): increased FOXA2 activation over RA and LDN alone | effect on INS induction (INS; heat map FIG. 21, dynamic profiling FIGS. 22-25): positive effect on INS induction, though with far less contribution | correlation with FOXA2 activation (FOXA2 [3]; iPSC line CR01, HD-DoE, FIG. 3): positive correlation | factor contribution, optimization of FOXA2 (FOXA2 [3]; iPSC line CR01, HD-DoE, FIG. 3): 17.72 | correlation with HNF1b activation (HNF1b; iPSC line CR01, HD-DoE, FIG. 2): negative correlation | factor contribution, optimization of HNF1b (HNF1b; iPSC line CR01, HD-DoE, FIG. 2): 3.02

GLP1: incretin, cAMP agonist (HAEGTFTSDVSSYLEGQAAKEFIAWLVKGR; ends and bridges not checked; UniProt P01275 98-127, looked up)
increase in insulin secretion in GSIS assay [4]: did not occur

Cc1c(C)c(NCC(=O)N(C)C2CCN(Cc3ccc(C(N)=O)cc3)CC2)c(C)c(C)c1N [SUN11602]
effect on INS activation (INS (beta cell marker)): slightly negative effect | factor contribution, PDX1 activation (PDX1; DFE culture, HD-DoE, FIG. 11): 4.7
